Data set [1] has as its system extracellular NA, DA and 5-HT in striatum. Kind of data set: Microdialysis in awake and freely moving rats, dorsal striatum. Type of data set: in vivo, rat. The conditions noted are these: 50 μmol/kg s.c., awake freely moving rats; for DA Stri ± SEM, maximum effect compared to baseline values: dopamine in striatum dialysate; for 5-HT Stri ± SEM, maximum effect compared to baseline values: serotonin in striatum dialysate. The text has this:
(§1) Male Sprague-Dawley rats weighing 220-320 g were used throughout the experiments. Before the experiment the animals were group housed, five animals in each cage, with free access to water and food. The animals were housed at least one week after arrival prior to surgery and use in the experiments. Each rat was used only once for microdialysis.
(§2) We use a modified version (Waters et al., 1994) of the I-shaped probe (Santiago and Westerink, 1990). The dialysis membrane we use is the AN69 poly-acrylonitrile/sodiummethalylsulfonate copolymer (HOSPAL; o.d./i.d. 310/220 μm: Gambro, Lund, Sweden). In the dorsal striatum we use probes with an exposed length of 3 mm of dialysis membrane and in the prefrontal cortex the corresponding length is 2.5 mm. The rats were operated under isoflurane inhalationanesthesia while mounted into a Kopf stereotaxic instrument. Co-ordinates were calculated relative to bregma; dorsal striatum AP +1, ML ±2.6, DV −6.3; Pf cortex, AP +3.2, 8° ML ±1.2, DV −4.0 according to (Paxinos & Watson, 1986). The dialysis probe was positioned in a burr hole under stereotaxic guidance and cemented with phosphatine dental cement.
(§3) The rats were housed individually in cages for 48 h before the dialysis experiments, allowing them to recover from surgery and minimizing the risk of drug interactions with the anaesthetic during the following experiments. During this period the rats had free access to food and water. On the day of experiment the rats were connected to a micro perfusion pump via a swiwel and were replaced in the cage where they could move freely within its confinements. The perfusion medium was a Ringer's solution containing in mmol/l: NaCl; 140, CaCl2; 1.2, KCl; 3.0, MgCl2; 1.0 and ascorbic acid; 0.04 according to (Moghaddam & Bunney, 1989). The pump was set to a perfusion speed of 2 μl/min and 40 μl samples were collected every 20 min. Each sample was analyzed at two HPLC systems. On an autoinjector (CMA 200) with a 10-port valve (Valco C10WE), holding two sample loops in series (4 μl and 20 μl), each brain dialysate sample is loaded in both loops simultaneously. At injection the 20 μl sample is introduced into a column switching system (reverse-phase combined with reverse-phase ion-pairing) for dopamine (DA), noradrenaline (NA), normetanephrine (NM), 3-methoxytyramine (3-MT) and serotonin (5-hydroxytryptamine, 5-HT) determination, while the 4 μl sample is introduced on a reverse-phase column for the chromatography of the acidic monoamine metabolites 3,4-di-hydroxyphenylacetic acid (DOPAC), homovanillic acid (HVA) and 5-hydroxyindoleacetic acid (5-HIAA). The currents generated by the two EC detectors are converted to digital data and evaluated using Chromeleon software (Dionex) on a PC. The method sample turn over time was 4.5 min and two parallel experiments are normally analyzed simultaneously on the system.
(§4) After the experiment the rats were uncoupled from the perfusion pump and decapitated. Their brains were rapidly taken out and fixed in Neo-fix solution (Kebolab, Sweden) for subsequent inspection of probe localisation. The Animal Ethics Committee in Göteborg, Sweden approved the procedures applied in these experiments.
(§5) The microdialysis was performed in awake and freely moving rats.
(§6) Dopamine=DA; Norepinephrine=NA; Serotonin=5-HT; Stri=Striatum; PFC=Prefrontal Cortex.

Data set [2] relates to extracellular NA, DA and 5-HT in prefrontal cortex. Kind of data set: Microdialysis in awake and freely moving rats, prefrontal cortex. The data set is classed as in vivo, rat. The following applies: 50 μmol/kg s.c., awake freely moving rats; for DA PFC ± SEM, maximum effect compared to baseline values: dopamine in prefrontal cortex dialysate; for NA PFC ± SEM, maximum effect compared to baseline values: norepinephrine in prefrontal cortex dialysate; for 5-HT PFC ± SEM, maximum effect compared to baseline values: serotonin in prefrontal cortex dialysate.
Excerpt: as §1, §2, §3, §4, §5, §6

Structures can show the parent of a compound that is named as a salt.

With `CCN1CC(O)(c2cc(F)cc(F)c2)C1` (as salt: fumaric acid salt), the melting point lay within 140 to 141 °C.

`CCN1CC(O)(c2cc(F)cc(Cl)c2)C1` (as salt: fumaric acid salt): the melting point lay within 166 to 168 °C.

For the compound `CCN1CC(O)(c2cccc(Cl)c2F)C1` (as salt: fumaric acid salt), the melting point is 172 to 173 °C.

In the case of `CCN1CC(O)(c2cccc(F)c2F)C1` (as salt: fumaric acid salt) [Example 1, 3-(2,3-difluorophenyl)-1-ethylazetidin-3-ol], the melting point lay in the range of 148 to 150 °C.

`CCN1CC(O)(c2ccc(F)c(F)c2)C1` (as salt: fumaric acid salt) [Example 2, 3-(3,4-difluorophenyl)-1-ethylazetidin-3-ol] displayed a melting point of 177 to 179 °C.

For `COC1(c2cccc(F)c2F)CNC1` (as salt: oxalic acid salt) [Example 8, 3-(2,3-difluorophenyl)-3-methoxyazetidine], the melting point is 141 to 142 °C.

The compound `CCN1CC(OC)(c2cccc(F)c2F)C1` (as salt: oxalic acid salt) [Example 9, 3-(2,3-difluorophenyl)-1-ethyl-3-methoxyazetidine] gave a melting point of 147 to 148 °C.

As for `CCN1CC(O)(c2cccc(F)c2F)C1` [Example 1, 3-(2,3-difluorophenyl)-1-ethylazetidin-3-ol], in data set [1], the “DA Stri ± SEM, maximum effect compared to baseline values” is reported as 219 ± 113% of control and the “5-HT Stri ± SEM, maximum effect compared to baseline values” is recorded as 113 ± 13% of control. The “NA Stri ± SEM, maximum effect compared to baseline values” in data set [1] (norepinephrine in striatum dialysate) is given as 261 ± 151% of control. In addition, in data set [2], the “DA PFC ± SEM, maximum effect compared to baseline values” was 211 ± 61% of control; the “NA PFC ± SEM, maximum effect compared to baseline values” is listed as 438 ± 91% of control; the “5-HT PFC ± SEM, maximum effect compared to baseline values” is given as 130 ± 11% of control.

As to `CCN1CC(O)(c2ccc(F)c(F)c2)C1` [Example 2, 3-(3,4-difluorophenyl)-1-ethylazetidin-3-ol], in data set [1], the “DA Stri ± SEM, maximum effect compared to baseline values” is 112% of control and the “5-HT Stri ± SEM, maximum effect compared to baseline values” is 162% of control. Also, in data set [2], the “DA PFC ± SEM, maximum effect compared to baseline values” is given as 309 ± 62% of control; the “NA PFC ± SEM, maximum effect compared to baseline values” is 397 ± 59% of control; the “5-HT PFC ± SEM, maximum effect compared to baseline values” is 182 ± 33% of control.

Take `CCN1CC(OC)(c2cccc(F)c2F)C1` [Example 9, 3-(2,3-difluorophenyl)-1-ethyl-3-methoxyazetidine]: in data set [1], the “DA Stri ± SEM, maximum effect compared to baseline values” is listed as 122 ± 12% of control and the “5-HT Stri ± SEM, maximum effect compared to baseline values” is reported as 134 ± 22% of control. Besides, in data set [2], the “DA PFC ± SEM, maximum effect compared to baseline values” is given as 215 ± 54% of control; the “NA PFC ± SEM, maximum effect compared to baseline values” is recorded as 298 ± 79% of control; the “5-HT PFC ± SEM, maximum effect compared to baseline values” is 169 ± 65% of control.

Source of the values: patent publication US8586572B2, “3-phenyl-azetidine derivatives useful as modulators of cortical catecholaminergic neurotransmission” (Integrative Research Laboratories Sweden AB, priority 2008, dated 2013).
